Test [1] deals with Staphylococcus aureus. Description: Antibacterial activity against methicillin-resistant Staphylococcus aureus […] assessed as reduction in bacterial growth measured under non-photodynamic inactivation condition. Type of test: functional. The note with it: light or radiation study.
In test [2] the test system is Staphylococcus aureus. Description: Antibacterial activity against methicillin-sensitive Staphylococcus aureus ATCC 29213 assessed as reduction in bacterial growth measured under non-photodynamic inactivation condition. Type of test: functional. The note with it: ATCC 29213, light or radiation study.

Here are results for nine molecules from ChEMBL document CHEMBL5241137, “Evaluation of carboxylic acid-derivatized corroles as novel gram-positive antibacterial agents under non-photodynamic inactivation conditions” (2023).

In general, MIC refers to the least concentration at which growth counts as inhibited.

In brackets after ≈: the same amount, converted by molar mass.

With `Cc1ccc(-c2c3nc(c(-c4cc(C(=O)O)cc(C(=O)O)c4)c4ccc([nH]4)c4ccc([nH]4)c(-c4cc(C(=O)O)cc(C(=O)O)c4)c4ccc2[nH]4)C=C3)cc1`, the minimal inhibitory concentration (MIC) with Staphylococcus aureus [1] and in the test with Staphylococcus aureus [2] was 12.5 µg/mL (≈ 17.4 µM) in each case.

On to `Cc1ccc(-c2c3nc(c(-c4ccc(C(=O)O)cc4)c4ccc([nH]4)c(-c4ccc(C)cc4)c4ccc([nH]4)c4ccc2[nH]4)C=C3)cc1`, for which the minimal inhibitory concentration (MIC) in the test on Staphylococcus aureus [1] and in the test on Staphylococcus aureus [2] was 100 µg/mL (≈ 167 µM) each time.

In the case of `O=C(O)c1ccc(-c2c3nc(c(-c4ccc(C(=O)O)cc4)c4ccc([nH]4)c4ccc([nH]4)c(-c4ccc(C(=O)O)cc4)c4ccc2[nH]4)C=C3)cc1`, the MIC with Staphylococcus aureus [1] and in the test with Staphylococcus aureus [2] was 100 µg/mL (≈ 152 µM) throughout.

Regarding `O=S(=O)(O)CCNc1c(F)c(F)c(-c2c3nc(c(-c4c(F)c(F)c(NCCS(=O)(=O)O)c(F)c4F)c4ccc([nH]4)c4ccc([nH]4)c(-c4c(F)c(F)c(NCCS(=O)(=O)O)c(F)c4F)c4ccc2[nH]4)C=C3)c(F)c1F`, the MIC was 100 µg/mL (≈ 89.9 µM) in the test on Staphylococcus aureus [1] and > 100 µg/mL with Staphylococcus aureus [2].

As to `Cc1c(C(=O)O)[nH]c(C(c2ccccc2)c2[nH]c(C(=O)O)c(C)c2C)c1C`, the MIC is 50 µg/mL (≈ 136 µM) in the test with Staphylococcus aureus [1] and 100 µg/mL (≈ 273 µM) in the test on Staphylococcus aureus [2].

For `Fc1cc(F)c(F)c(-c2c3nc(c(-c4c(F)c(F)c(F)c(F)c4F)c4ccc([nH]4)c(-c4c(F)c(F)cc(F)c4F)c4ccc([nH]4)c4ccc2[nH]4)C=C3)c1F`, the results for the MIC with Staphylococcus aureus [1] and with Staphylococcus aureus [2] were 12.5 µg/mL (≈ 16.4 µM) and 25 µg/mL (≈ 32.9 µM), respectively.

`O=C(O)c1ccc(C(c2ccc[nH]2)c2ccc[nH]2)cc1`: the MIC in the test with Staphylococcus aureus [1] and in the test with Staphylococcus aureus [2] was 50 µg/mL (≈ 188 µM) in each case.

Take `CO[C@@]1(NC(=O)Cc2cccs2)C(=O)N2C(C(=O)O)=C(COC(N)=O)CS[C@@H]21` [CEFOXITIN]: the MIC worked out at 25 µg/mL (≈ 58.5 µM) with Staphylococcus aureus [1] and 3.12 µg/mL (≈ 7.3 µM) in the test on Staphylococcus aureus [2].

Regarding `CN[C@H](CC(C)C)C(=O)N[C@H]1C(=O)N[C@@H](CC(N)=O)C(=O)N[C@H]2C(=O)N[C@H]3C(=O)N[C@H](C(=O)N[C@H](C(=O)O)c4cc(O)cc(O)c4-c4cc3ccc4O)[C@H](O)c3ccc(c(Cl)c3)Oc3cc2cc(c3O[C@@H]2O[C@H](CO)[C@@H](O)[C@H](O)[C@H]2O[C@H]2C[C@](C)(N)[C@H](O)[C@H](C)O2)Oc2ccc(cc2Cl)[C@H]1O` [VANCOMYCIN], the MIC in the test on Staphylococcus aureus [1] and with Staphylococcus aureus [2] was 0.39 µg/mL (≈ 0.269 µM) throughout.
